In brackets after ≈: the same amount, converted by molar mass. Like-named read-outs stand apart in the source and are kept apart here.
Key:
[1] = test system: Candida tropicalis IFO 10241; experiment: MIC, two-fold agar dilution, C. tropicalis IFO 10241; assay type: cell-based; conditions: IFO10241, YMA pH 7.0, 28° C., 40 hours
Procedure: (§1) Minimum inhibitory concentrations (MICs) of nine 4'-N-substituted pradimicin derivatives were determined by two-fold agar dilution method on phosphate-buffered yeast morphology agar (YMA, pH 7.0, Difco Laboratories). A 5-μl of fungal cell suspension containing 2×10^6 cells/ml (2×10^7 cells/ml for Trichophyton mentagrophytes) were spotted on the surface of the agar plates containing test compound. MICs were recorded after 40-hour incubation at 28° C. except for T. mentagrophytes, which required 60-hour incubation to produce visually evaluable growth on the drug-free control plates and were defined as the lowest antibiotic concentrations showing no growth or less than five discrete colonies per spot.
(§2) Medium: yeast morphology agar + 1/15 M phosphate buffer (pH 7.0)
(§3) Incubation conditions: 28° C., 40 hours (C. albicans ATCC 38247 & T.
(§4) Medium: Yeast morphology agar + 1/15 phosphate buffer (pH 7.0).

[2] = test system: Aspergillus fumigatus IAM 2034; experiment: Therapeutic efficacy in Aspergillus fumigatus systemic infection in mice; assay type: in vivo, male ICR mice infected with Aspergillus fumigatus IAM 2034; conditions: for S/T (No. of survivors/tested) / responders at 12.5 mg/kg / responders at 25 mg/kg / responders at 50 mg/kg: 20th day post-infection; for responders at 12.5 mg/kg / responders at 25 mg/kg / responders at 50 mg/kg: read-out: S/T (No. of survivors/tested) (converted)
Procedure: (§5) The in vivo therapeutic efficacies of seven 4'-N-substituted pradimicin derivatives, KHM-1, KHM-2, KHM-3, KHM-4, KHM-5, KHM-6 and KHM-7 were evaluated in the mouse infected with Candida albicans A9540 and Aspergillus fumigatusIAM 2034. Groups of five specific-pathogen-free male ICR mice weighing 20-25 g at each dose level were intravenously infected with approximately 10 times the 50% lethal dose of C. albicans A9540 (1×10^6 cells/mouse) or A. fumigatus IAM 2034 (1×10^7 cells/mouse). Immediately after the fungal infection, test compounds dissolved with 10% DMSO in distilled water were intravenously given to the mouse at the dosed volume of 0.1 ml/10 g of body weight. […] Untreated control animals died 7 to 13 days post-infection.

[3] = test system: Cryptococcus neoformans D49; experiment: MIC, two-fold agar dilution, C. neoformans D49; assay type: cell-based; conditions: YMA pH 7.0, 28° C., 40 hours
Procedure: as §1, §2, §3, §4

[4] = test system: Candida albicans ATCC 38247; experiment: MIC, two-fold agar dilution, C. albicans ATCC 38247; assay type: cell-based; conditions: ATCC38247, YMA pH 7.0, 28° C., 60 hours (table footnote)
Procedure: as §1, §2, §3
(§6) mentagrophytes #4329: 28° C., 60 hours).
as §4

Candida tropicalis 85-8 = experiment: MIC, two-fold agar dilution, C. tropicalis 85-8; assay type: cell-based; conditions: 858, YMA pH 7.0, 28° C., 40 hours
Procedure: as §1, §2, §3, §4

[5] = test system: Trichophyton mentagrophytes #4329; experiment: MIC, two-fold agar dilution, T. mentagrophytes #4329; assay type: cell-based
Procedure: as §1, §2, §3, §6, §4

[6] = test system: Aspergillus fumigatus IAM 2034; experiment: MIC, two-fold agar dilution, A. fumigatus IAM 2034; assay type: cell-based; conditions: IAM2034
Procedure: as §1, §2, §3, §4

[7] = test system: Cryptococcus neoformans IAM 4514; experiment: MIC, two-fold agar dilution, C. neoformans IAM 4514; assay type: cell-based; conditions: IAM4514
Procedure: as §1, §2, §3, §4

[8] = test system: Candida albicans IAM 4888; experiment: MIC, two-fold agar dilution, C. albicans IAM 4888; assay type: cell-based; conditions: IAM4888, YMA pH 7.0, 28° C., 40 hours
Procedure: as §1, §2, §3, §4

Candida albicans A9540 [9] = experiment: animal or person; assay type: in vivo, male ICR mice infected with Candida albicans A9540
Procedure: as §5

[10] = test system: Candida albicans ATCC 32354; experiment: MIC, two-fold agar dilution, C. albicans ATCC 32354; assay type: cell-based; conditions: ATCC32354, YMA pH 7.0, 28° C., 40 hours
Procedure: as §1, §2, §3, §4

[11] = test system: Saccharomyces cerevisiae ATCC 9763; experiment: MIC, two-fold agar dilution, S. cerevisiae ATCC 9763; assay type: cell-based; conditions: ATCC9763, YMA pH 7.0, 28° C., 40 hours
Procedure: as §1, §2, §3, §4

Candida albicans A9540 [12] = experiment: MIC, two-fold agar dilution, C. albicans A9540; assay type: cell-based
Procedure: as §1, §2, §3, §4

Candida albicans 83-2-14 = experiment: MIC, two-fold agar dilution, C. albicans 83-2-14; assay type: cell-based; conditions: 83214, YMA pH 7.0, 28° C., 40 hours
Procedure: as §1, §2, §3, §4

[13] = IAM2034, 480 h, Table 3, Aspergillus fumigatus IAM 2034, iv, read-out: PD50 (mice) Af-3
[14] = Table 3, Trichophyton mentagrophytes #4329, YMA, read-out: MIC TM-4
[15] = Trichophyton mentagrophytes #4329, YMA pH 7.0, 28° C., 60 hours, read-out: MIC
[16] = Aspergillus fumigatus IAM 2034, YMA pH 7.0, 28° C., 40 hours, read-out: MIC
[17] = Table 3, Aspergillus fumigatus IAM 2034, YMA, read-out: MIC Af-3
[18] = Cryptococcus neoformans IAM 4514, YMA pH 7.0, 28° C., 40 hours, read-out: MIC
[19] = Table 3, Cryptococcus neoformans IAM 4514, YMA, read-out: MIC Cn-2
[20] = Candida albicans, A9540, 480 h, Table 2, C. albicans, mice, iv, 95% confidence limits in parentheses, read-out: PD50 (50% protection dose)
[21] = Candida albicans A9540, YMA pH 7.0, 28° C., 40 hours, read-out: MIC
[22] = Table 3, Candida albicans A9540, YMA, read-out: MIC Ca-4
[23] = Aspergillus fumigatus, IAM2034, 480 h, A. fumigatus, mice, 12.5 mg/kg iv
[24] = Aspergillus fumigatus, IAM2034, 480 h, A. fumigatus, mice, 25 mg/kg iv
[25] = Aspergillus fumigatus, IAM2034, 480 h, A. fumigatus, mice, 50 mg/kg iv
[26] = Aspergillus fumigatus, IAM2034, 480 h, Table 2, A. fumigatus, mice, iv, 95% confidence limits in parentheses, read-out: PD50 (50% protection dose)
[27] = 480 h, Table 3, Candida albicans A9540, iv, read-out: PD50 (mice) Ca-4
[28] = Candida albicans, A9540, in Mus musculus, iv, 480 h, read-out: S/T (No. of survivors/tested)

SMILES	MIC [1] [µg/mL]	ED50 [2, 13] [mg/kg]	MIC [3] [µg/mL]	MIC [4] [µg/mL]	MIC (Candida tropicalis 85-8) [µg/mL]	MIC [5, 14] [µg/mL]	MIC [5, 15] [µg/mL]	MIC [6, 16] [µg/mL]	MIC [6, 17] [µg/mL]	MIC [7, 18] [µg/mL]	MIC [7, 19] [µg/mL]	MIC [8] [µg/mL]	ED50 (Candida albicans A9540 [9]; [20]) [mg/kg]	MIC [10] [µg/mL]	MIC [11] [µg/mL]	MIC (Candida albicans A9540 [12]; [21]) [µg/mL]	MIC (Candida albicans A9540 [12]; [22]) [µg/mL]	MIC (Candida albicans 83-2-14) [µg/mL]	responders at 12.5 mg/kg [2, 23] [%]	responders at 25 mg/kg [2, 24] [%]	also measured
COc1cc(O)c2c(c1)C(=O)c1c(cc3c(c1O)-c1c(cc(C)c(C(=O)N[C@H](C)C(=O)O)c1O)[C@H](O[C@@H]1O[C@H](C)[C@H](N(C)C#N)[C@H](O[C@@H]4OC[C@@H](O)[C@H](O)[C@H]4O)[C@H]1O)[C@H]3O)C2=O [KHM-1, 4'-N-Cyanogradimicin A]	12.5 (≈ 14.4 µM)	> 50	3.1 (≈ 3.58 µM)	1.6 (≈ 1.85 µM)	12.5 (≈ 14.4 µM)	25 (≈ 28.9 µM)	25 (≈ 28.9 µM)	12.5 (≈ 14.4 µM)	12.5 (≈ 14.4 µM)	3.1 (≈ 3.58 µM)	3.1 (≈ 3.58 µM)	3.1 (≈ 3.58 µM)	13	3.1 (≈ 3.58 µM)	1.6 (≈ 1.85 µM)	3.1 (≈ 3.58 µM)	3.1 (≈ 3.58 µM)	3.1 (≈ 3.58 µM)			S/T (No. of survivors/tested) ([2]; A. fumigatus, mice, 6.3 mg/kg iv): 0.5; S/T (No. of survivors/tested) ([2]; A. fumigatus, mice, 12.5 mg/kg iv): 2/5; S/T (No. of survivors/tested) ([2]; A. fumigatus, mice, 25 mg/kg iv): 0/5; S/T (No. of survivors/tested) ([2]; A. fumigatus, mice, 50 mg/kg iv): 1/5; ED50 ([2]; Aspergillus fumigatus, IAM2034, iv, 480 h, read-out: PD50 (50% protection dose)): > 50 mg/kg; S/T (No. of survivors/tested) (Candida albicans A9540 [9]; C. albicans, mice, 6.3 mg/kg iv, 20th day post-infection): 1/5; S/T (No. of survivors/tested) (Candida albicans A9540 [9]; C. albicans, mice, 12.5 mg/kg iv, 20th day post-infection): 3/5; S/T (No. of survivors/tested) (Candida albicans A9540 [9]; C. albicans, mice, 25 mg/kg iv, 20th day post-infection): 4/5; S/T (No. of survivors/tested) (Candida albicans A9540 [9]; C. albicans, mice, 50 mg/kg iv, 20th day post-infection): 5/5
COc1cc(O)c2c(c1)C(=O)c1c(cc3c(c1O)-c1c(cc(C)c(C(=O)N[C@H](CO)C(=O)O)c1O)[C@H](O[C@@H]1O[C@H](C)[C@H](N(C)C#N)[C@H](O[C@@H]4OC[C@@H](O)[C@H](O)[C@H]4O)[C@H]1O)[C@H]3O)C2=O [KHM-3, 4'-Cyanooradimicin FA-1]	12.5 (≈ 14.2 µM)	> 50	6.3 (≈ 7.14 µM)	3.1 (≈ 3.52 µM)	12.5 (≈ 14.2 µM)	50 (≈ 56.7 µM)	50 (≈ 56.7 µM)	25 (≈ 28.4 µM)	25 (≈ 28.4 µM)	6.3 (≈ 7.14 µM)	6.3 (≈ 7.14 µM)	6.3 (≈ 7.14 µM)	> 50	6.3 (≈ 7.14 µM)	1.6 (≈ 1.81 µM)	6.3 (≈ 7.14 µM)	6.3 (≈ 7.14 µM)	6.3 (≈ 7.14 µM)	0	0	responders at 50 mg/kg [2, 25]: 0%; ED50 [2, 26]: > 50 mg/kg; ED50 (Candida albicans A9540 [9]; [27]): > 50 mg/kg; responders at 12.5 mg/kg (Candida albicans A9540 [9]; Candida albicans, A9540, 480 h, C. albicans, mice, 12.5 mg/kg iv, 20th day post-infection, read-out: S/T (No. of survivors/tested) (converted)): 0%; responders at 25 mg/kg (Candida albicans A9540 [9]; Candida albicans, A9540, 480 h, C. albicans, mice, 25 mg/kg iv, 20th day post-infection, read-out: S/T (No. of survivors/tested) (converted)): 0%; responders at 50 mg/kg (Candida albicans A9540 [9]; Candida albicans, A9540, 480 h, C. albicans, mice, 50 mg/kg iv, 20th day post-infection, read-out: S/T (No. of survivors/tested) (converted)): 40%
COc1cc(O)c2c(c1)C(=O)c1c(cc3c(c1O)-c1c(cc(C)c(C(=O)N[C@H](CO)C(=O)O)c1O)[C@H](O[C@@H]1O[C@H](C)[C@H](N(C)N=O)[C@H](O[C@@H]4OC[C@@H](O)[C@H](O)[C@H]4O)[C@H]1O)[C@H]3O)C2=O [KHM-5, 4'-N-Nitrosopradimicin FA-1]	12.5 (≈ 14.1 µM)	> 50	3.1 (≈ 3.5 µM)	3.1 (≈ 3.5 µM)	12.5 (≈ 14.1 µM)	6.3 (≈ 7.11 µM)	6.3 (≈ 7.11 µM)	3.1 (≈ 3.5 µM)	3.1 (≈ 3.5 µM)	3.1 (≈ 3.5 µM)	3.1 (≈ 3.5 µM)	6.3 (≈ 7.11 µM)	> 50	6.3 (≈ 7.11 µM)	3.1 (≈ 3.5 µM)	6.3 (≈ 7.11 µM)	6.3 (≈ 7.11 µM)	6.3 (≈ 7.11 µM)	0	0	responders at 50 mg/kg [2, 25]: 40%; ED50 [2, 26]: > 50 mg/kg; ED50 (Candida albicans A9540 [9]; [27]): > 50 mg/kg; responders at 12.5 mg/kg (Candida albicans A9540 [9]; [28]): 20%; responders at 25 mg/kg (Candida albicans A9540 [9]; [28]): 0%; responders at 50 mg/kg (Candida albicans A9540 [9]; [28]): 40%

— patent US6281342A, “Pradimicin compounds” (Bristol-Myers Squibb Company, priority 1994, dated 2001)
